Measurements: patent US12466819B2, “Tricyclic compounds with OMA1/OPA1 modulatory properties” (712 North Inc., priority 2019, dated 2025)
Entries after “also recorded” stand apart in the source; their conditions may differ. Like-named read-outs stand apart in the source and are kept apart here.

How the values were obtained:
[1] = target: T1, OMA1 protease (OPA1 cleavage) (Homo sapiens, UniProt Q96E52); assay: OPA1 cleavage / OMA1 activation in 293T cells by OPA1 Western blotting; format: cell-based; details: for critical CCCP concentration (threshold-level) for L-OPA1 cleavage after preincubation with compound: 30 μM compound for 60 minutes; for OPA1 cleavage by compound alone, 100 μM: 100 μM (up to 100 μM for VI); for OPA1 cleavage with compound plus 1 μM CCCP: 60 minutes compound (30 μM MMP2/9 inhibitor IV, 300 μM temozolomide, 100 μM amoxapine), then 1 μM CCCP for 30 minutes
T1 construct: endogenous in cells; host or cells: 293T cells
T1 sequence (Q96E52 144-524): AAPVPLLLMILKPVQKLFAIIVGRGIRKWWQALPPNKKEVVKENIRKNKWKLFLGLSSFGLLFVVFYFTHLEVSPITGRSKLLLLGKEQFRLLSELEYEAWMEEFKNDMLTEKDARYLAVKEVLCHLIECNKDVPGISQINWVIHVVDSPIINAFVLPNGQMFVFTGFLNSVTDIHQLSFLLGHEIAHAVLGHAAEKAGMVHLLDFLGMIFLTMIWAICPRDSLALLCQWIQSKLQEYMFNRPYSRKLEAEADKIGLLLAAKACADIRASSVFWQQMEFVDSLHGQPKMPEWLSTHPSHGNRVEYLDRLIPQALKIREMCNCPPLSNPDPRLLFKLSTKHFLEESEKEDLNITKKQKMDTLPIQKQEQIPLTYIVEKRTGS
Protocol: FIG. 6. A: 293T cells were treated with 0 μM, 1 μM, 2 μM, 3 μM, 4 μM, or 5 μM CCCP for 30 minutes after which OPA1 was analyzed by Western blotting. […] E: OPA1 cleavage in Neuro2A cells treated with 30 μM of the indicated agents for 90 minutes (60 min preincubation plus 30 min of CCCP).
FIG. 7. Compounds of present invention can lower CCCP-levels for OMA1 activation gauged by OPA1 cleavage in Western blots. A-C: 293T cells were treated with the denoted concentrations of compound VII, IV and V for 60 minutes before CCCP was added for an additional 30 minutes. D-E: 293T cells were treated with the denoted concentrations of compound VII, IV and V for 6 hours before CCCP was added for an additional 30 minutes.
FIG. 11. A: A likely binding pose of a compound of present invention illustrates aspects of the drug-target interaction. B: 293T cells were treated with the denoted concentrations of compound for 90 minutes before cells were harvested and analyzed by OPA1 Western blotting. C: 293T cells were treated with the denoted concentrations of compound VI for 60 minutes and another 30 minutes with 1 μM CCCP before cells were harvested and analyzed by OPA1 Western blotting.
(§1) A nonlimiting example of a method of testing compounds for their efficacy to induce OPA1-cleavage and/or OMA1 activation is provided in FIG. 1, for which human 293T cells or mouse Neuro2A cells were treated with different agents and subsequently tested for OPA1-hydrolysis by Western blotting. […] OPA1 cleavage in these experiments is OMA1 dependent, because knock-down of the protease preserved L-OPA1 (FIG. 1B & 1C).
A nonlimiting example illustrates specific features of certain compounds disclosed herein and teaches how potency of such compounds can be further improved. To this end, compound were analyzed for their potential to lower threshold-levels for OPA1 cleavage and/or OMA1 activation using the methods described in Example 3. In one example, L-OPA1 was cleaved in untreated 293T cells at concentrations ≥5 μM CCCP (FIG. 6A, top panel). […] Preincubation with 30 μM MMP2 inhibitor II (CAS #869577-51-5) lowered the threshold-level even further to about 1 μM CCCP (FIG. 6C, bottom panel). The skilled artisan can recognize how (and the not-so-skilled artisan certainly appreciates that) substitutions and modifications of the thiirane-opposed end of the molecule increased potency.

[2] = tested on: mitochondrial membrane potential Δψ; assay: TMRE live-cell assay in 293T cells; details: for impact on mitochondrial membrane potential Δψ (TMRE signal): overnight (18 hours), different compound concentrations
Protocol: (§2) The mitochondrial inner membrane potential Δψ was measured with a cellular TMRE-assay, in which a reduction of Δψ results in a reduced TMRE signal (see insert in A). […] A: Vehicle only. […] D: compound VII. E: compound IV. F: compound V.
(§3) It is well established in the art that CCCP can lower the mitochondrial membrane potential Δψ. […] 293T cells were cultured overnight with different compound concentrations after which TMRE fluorescence was measured with a fluorescence plate-reader (FIG. 10).

OMA1 = target: T2, OMA1 (Homo sapiens, UniProt Q96E52); assay: Luciferase-based cellular reporter of enzymatic OMA1 activity in 293T cells; format: cell-based; details: 293T reporter cells; for OMA1 activation without stress-stimulus at 40 μM: overnight, no CCCP or valinomycin
T2 construct: 293T cells stably transfected with the reporter enzyme were incubated with increasing concentrations of a compound and 30 nM valinomycin; endogenous in cells; host or cells: 293T cells stably transfected with a luciferase-based reporter enzyme (only the reporter is transfected, not OMA1)
T2 sequence (Q96E52 144-524): T1 sequence (Q96E52 144-524)
Protocol: FIG. 8. 293T cells expressing a luciferase-based cellular reporter were incubated for 1 hour with increasing concentrations of the denoted compounds in cell culture media with 30 nM valinomycin before luciferase substrate was added and light emission measured. OMA1 activity decreases the light signal of the reporter in this assay. A: Vehicle only. […] C: amoxapine. D: compound VII. E: compound IV. F: compound V.
FIG. 9. 293T cells expressing a luciferase-based cellular reporter were incubated overnight with increasing concentrations of the denoted compounds. Luciferase substrate was added the next day and light emission measured. A: Vehicle only. […] C: amoxapine. D: compound VII. E: compound IV. F: compound V.
The following non-limiting examples illustrate some aspects of the mechanism of action of the compounds disclosed herein. An alternative method of measuring enzymatic OMA1 activity makes use of a luciferase-based cellular reporter, which can be transiently or stably expressed in eukaryotic cells. In this assay, OMA1 cleaves the reporter enzyme upon activation and thereby obliterates the luciferase signal. 293T cells stably transfected with the reporter enzyme were incubated with increasing concentrations of a compound and 30 nM valinomycin. Valinomycin is known in the art to induce OPA1 cleavage (see, for example, Head B., et al. “Inducible proteolytic inactivation of OPA1 mediated by the OMA1 protease in mammalian cells.” J Cell Biol. 2009; 187(7):959-66, as well as FIG. 1E). […] This specific example illustrates how compounds of present invention can activate OMA1 under conditions that would otherwise not lead to OMA1 activation. This example also provides an independent validation of the results obtained by Western blotting.
Incubation time is a variable of OMA1 activation for certain compounds (see, for example, sorafenib in FIG. 1E). To investigate whether compounds of present disclosure would activate OMA1 in the absence of a stress-stimulus such as CCCP or valinomycin, reporter cells were incubated with increasing compound concentrations overnight (FIG. 9). […]

[3] = target: T3, OMA1 protease (OPA1 cleavage) (Mus musculus, UniProt Q9D8H7); assay: OPA1 cleavage in Neuro2A cells by OPA1 Western blotting; format: cell-based; details: 100 μM sorafenib; for OPA1 cleavage after 30 minutes: 5 μM CCCP, 1 μM valinomycin; for OPA1 cleavage after 3 hours: 100 μM trichostatin A
T3 construct: endogenous in cells; host or cells: Neuro2A cells
T3 sequence (Q9D8H7 140-521): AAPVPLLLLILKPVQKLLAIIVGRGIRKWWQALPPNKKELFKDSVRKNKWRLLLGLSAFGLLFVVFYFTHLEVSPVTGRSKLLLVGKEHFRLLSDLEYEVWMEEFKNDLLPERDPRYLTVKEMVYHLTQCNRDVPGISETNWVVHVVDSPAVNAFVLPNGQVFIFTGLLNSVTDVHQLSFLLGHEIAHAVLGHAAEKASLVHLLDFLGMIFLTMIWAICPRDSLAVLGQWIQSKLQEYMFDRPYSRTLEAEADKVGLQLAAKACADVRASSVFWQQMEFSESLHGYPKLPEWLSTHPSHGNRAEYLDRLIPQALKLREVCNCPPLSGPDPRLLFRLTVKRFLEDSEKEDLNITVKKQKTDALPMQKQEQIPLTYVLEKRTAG
Text: FIG. 1. A: The YME1L1 protease regulates the OPA1 ratios under physiological conditions (a). The OMA1 protease converts all OPA1 isoforms to S-OPA1 under conditions broadly defined as stress conditions (b). […] OMA1 knock-down could prevent OPA1 hydrolyses in these experiments. C: Quantification of OMA1 protein levels in Western blots upon OMA1 knock-down (mean±S.D.; p≤0.05; n=3). D: Different chemicals and combinations of chemicals altered the OPA1 ratios in 293T cells. E: Neuro2A cells were treated with the indicated agents for 30 minutes or 3 hours, respectively.
as §1
Another example is provided in FIG. 1E, for which Neuro2A cells were treated with different reagents for 30 minutes or 3 hours prior to the assessment of OPA1 by Western blotting. Some compounds acted faster while others were slower in altering the OPA1 ratios. […] Trichostatin A had no effect even after 3 hours of treatment. […] In certain embodiments, a pharmaceutical composition comprising an effective amount of sorafenib or a derivate, a prodrug or a pharmaceutical acceptable salt thereof and an effective amount of temozolomide or a derivate, a prodrug or a pharmaceutical acceptable salt thereof is administered to a subject with cancer.

[4] = tested on: mitochondrial membrane potential Δψ
Protocol: as §2, §3

[5] = 293T cells, then CCCP for another 30 minutes
[6] = cells treated 60 minutes with compound, then CCCP for another 30 minutes
[7] = 293T cells, pre-incubation of 6 hours before CCCP for an additional 30 minutes
[8] = 293T cells, 90 minutes, absence of CCCP

Compound: CS(=O)(=O)Nc1ccc(Oc2ccc(S(=O)(=O)CC3CO3)cc2)cc1 (stereo not drawn) [MMP2 inhibitor II]
- critical CCCP concentration (threshold-level) for L-OPA1 cleavage after preincubation with compound [1, 5]: about 1 μM
- effective dose (OPA1 cleavage) [1, 6]: about 30 μM

Compound: C=CCSc1ccc2c(c1)C(N1CCNCC1)=Nc1ccccc1O2 [VII]
- OPA1 cleavage at the tested concentrations after extended pre-incubation [1, 7]: did result in OPA1 cleavage
- effective dose (OPA1 cleavage) [1, 6]: about 10 μM
- increase of potency compared to amoxapine ([1]; from effective doses in 293T cells): about 3 fold
- impact on mitochondrial membrane potential Δψ (TMRE signal) [2]: only little impact on Δψ
- OMA1 activation without stress-stimulus at 40 μM (OMA1): OMA1 activation was noted

Compound: N#CC(C#N)=NNc1cccc(Cl)c1 [CCCP]
- OPA1 cleavage after 30 minutes [3]: enough to induce OPA1 cleavage
- OPA1 cleavage by 1 μM CCCP alone ([1]; 293T cells, 1 μM CCCP, 30 minutes): did not induce OPA1 cleavage
- L-OPA1 cleavage by 10 μM CCCP ([1]; 293T cells, 10 μM CCCP, 30 minutes): resulted in L-OPA1 cleavage
- CCCP concentration at which L-OPA1 was cleaved ([1]; untreated 293T cells, CCCP 30 minutes): ≥ 5 µM
- TMRE signal with 0.6 μM CCCP ([2]; 0.6 μM CCCP): significantly reduced the TMRE signal

Compound: CC(/C=C/C(=O)NO)=C\[C@@H](C)C(=O)c1ccc(N(C)C)cc1 [Trichostatin A, trichostatin A]
- OPA1 cleavage after 3 hours [3]: no effect

Compound: O=S(=O)(CC1CS1)c1ccc(Oc2ccccc2)cc1 (stereo not drawn) [MMP2/9 inhibitor IV]
- critical CCCP concentration (threshold-level) for L-OPA1 cleavage after preincubation with compound [1, 5]: about 2 μM
- OPA1 cleavage by compound alone, 30 μM ([1]; 293T cells, 30 μM, 90 minutes, absence of CCCP): did not induce OPA1 cleavage
- OPA1 cleavage by compound alone, 100 μM [1, 8]: no effects on L-OPA1
- OPA1 cleavage with compound plus 1 μM CCCP ([1]; 293T cells): led to OPA1 cleavage
- impact on mitochondrial membrane potential Δψ (TMRE signal) [4]: only little impact on Δψ

Compound: O=C1Nc2ccccc2Oc2ccc(S(=O)(=O)CC3CO3)cc21 (stereo not drawn) [Compound V]
- efficacy in OPA1 cleavage in the presence of CCCP ([1]; 293T cells, 60 minutes compound, then CCCP 30 minutes): some efficacy; also recorded: overall little activity
- OPA1 cleavage at the tested concentrations after extended pre-incubation [1, 7]: did result in OPA1 cleavage
- potency (effective dose) after extended pre-incubation [1, 7]: about 1 μM
- impact on mitochondrial membrane potential Δψ (TMRE signal) [2]: only little impact on Δψ

Compound: O=C1Nc2ccccc2Oc2ccc(S(=O)(=O)CC3CS3)cc21 (stereo not drawn) [Compound VI]
- conversion of L-OPA1 isoforms at 300 nM ([1]; 293T cells, 300 nM compound, presence of 1 μM CCCP): fully convert all L-OPA1 isoforms
- OPA1 cleavage by compound alone, 100 μM [1, 8]: did not induce OPA1 cleavage
- effective dose (OPA1 cleavage) ([1]; 293T cells, 60 minutes compound, another 30 minutes with 1 μM CCCP): 300 nM
- effective dose better than compound IV ([1]; 293T cells, with CCCP): 10 times
- more potent in inducing OPA1 hydrolysis than MMP2/9 inhibitor IV or amoxapine ([1]; 293T cells, with CCCP): 100 times

Compound: Clc1ccc2c(c1)C(N1CCNCC1)=Nc1ccccc1O2 [amoxapine]
- OPA1 cleavage by compound alone, 100 μM [1, 8]: no effect on OPA1 cleavage; also recorded: no perceptible effects
- OPA1 cleavage with compound plus 1 μM CCCP ([1]; 293T cells): OPA1 cleavage was observed
- impact on mitochondrial membrane potential Δψ (TMRE signal) [2]: only little impact on Δψ
- OMA1 activation without stress-stimulus at 40 μM (OMA1): OMA1 activation was noted

Compound: CNC(=O)c1cc(Oc2ccc(NC(=O)Nc3ccc(Cl)c(C(F)(F)F)c3)cc2)ccn1 [sorafenib]
- OPA1 cleavage after 30 minutes [3]: only little effect
- OPA1 cleavage after 3 hours [3]: L-OPA1 was completely converted

Compound: C=CCSc1ccc2c(c1)C(=O)Nc1ccccc1O2 [IV, 2-(allylthio)dibenzo[b,f][1,4]oxazepin-11(10H)-one]
- impact on mitochondrial membrane potential Δψ (TMRE signal) [2]: only little impact on Δψ

Compound: CC(C)[C@@H]1NC(=O)[C@H](C)OC(=O)[C@@H](C(C)C)NC(=O)[C@@H](C(C)C)OC(=O)[C@H](C(C)C)NC(=O)[C@H](C)OC(=O)[C@@H](C(C)C)NC(=O)[C@@H](C(C)C)OC(=O)[C@H](C(C)C)NC(=O)[C@H](C)OC(=O)[C@@H](C(C)C)NC(=O)[C@@H](C(C)C)OC1=O [valinomycin]
- OPA1 cleavage after 30 minutes [3]: enough to induce OPA1 cleavage
- effect of 30 nM valinomycin alone on reporter signal (OMA1; 1 hour, 30 nM valinomycin, vehicle only): only little effects
